Legend:
Assay in all cases: relative viability (nuclei count vs DMSO), 5 days (fraction); higher = more cells survive
Nelarabine + Tozasertib = compound: COc1nc(N)nc2c1ncn2[C@@H]1O[C@H](CO)[C@@H](O)[C@@H]1O [Nelarabine] + Cc1cc(Nc2cc(N3CCN(C)CC3)nc(Sc3ccc(NC(=O)C4CC4)cc3)n2)n[nH]1 [Tozasertib] (partner 0.1 µM)
How it was run: (§1)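 Lung cancer cell lines, seeded in 1536-well plates, were treated the following day by pin tool with a single drug or with five library-drug doses (not always all listed) in √10 steps on top of a fixed anchor-drug dose. Cells were fixed and nuclei stained in one step after 5 days, and nuclei were counted. Relative viability is the nuclei count for treated wells divided by that for vehicle wells, reported as medians of duplicate plates.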

Nelarabine + Vorinostat = compound: COc1nc(N)nc2c1ncn2[C@@H]1O[C@H](CO)[C@@H](O)[C@@H]1O [Nelarabine] + O=C(CCCCCCC(=O)Nc1ccccc1)NO [Vorinostat] (partner 1 µM)
How it was run: as §1

Adavosertib + Decitabine = compound: C=CCn1c(=O)c2cnc(Nc3ccc(N4CCN(C)CC4)cc3)nc2n1-c1cccc(C(C)(C)O)n1 [Adavosertib] + Nc1ncn([C@H]2C[C@H](O)[C@@H](CO)O2)c(=O)n1 [Decitabine] (partner 2 µM)
How it was run: as §1

Adavosertib + Crizotinib = compound: C=CCn1c(=O)c2cnc(Nc3ccc(N4CCN(C)CC4)cc3)nc2n1-c1cccc(C(C)(C)O)n1 [Adavosertib] + C[C@@H](Oc1cc(-c2cnn(C3CCNCC3)c2)cnc1N)c1c(Cl)ccc(F)c1Cl [Crizotinib] (partner 1 µM)
How it was run: as §1

Row | Cell Line | relative viability (Nelarabine + Tozasertib; first compound 0.01 µM) | relative viability (Nelarabine + Tozasertib; first compound 0.03162 µM) | relative viability (Nelarabine + Tozasertib; first compound 0.1 µM) | relative viability (Nelarabine + Tozasertib; first compound 0.3162 µM) | relative viability (Nelarabine + Tozasertib; first compound 1 µM) | relative viability (Nelarabine + Vorinostat; first compound 0.01 µM) | relative viability (Nelarabine + Vorinostat; first compound 0.03162 µM) | relative viability (Nelarabine + Vorinostat; first compound 0.1 µM) | relative viability (Nelarabine + Vorinostat; first compound 0.3162 µM) | relative viability (Nelarabine + Vorinostat; first compound 1 µM) | relative viability (Adavosertib + Decitabine; first compound 0.01 µM) | relative viability (Adavosertib + Decitabine; first compound 0.03162 µM) | relative viability (Adavosertib + Decitabine; first compound 0.1 µM) | relative viability (Adavosertib + Decitabine; first compound 0.3162 µM) | relative viability (Adavosertib + Crizotinib; first compound 0.01 µM) | relative viability (Adavosertib + Crizotinib; first compound 0.03162 µM) | relative viability (Adavosertib + Crizotinib; first compound 0.1 µM) | relative viability (Adavosertib + Crizotinib; first compound 0.3162 µM)
1 | SW 900 | 0.617 | 0.476 | 0.635 | 0.611 | 0.532 | 0.471 | 0.567 | 0.795 | 0.628 | 0.448 | 0.442 | 0.464 | 0.461 | 0.312 |  |  |  | 
2 | NCI-H1650 | 0.393 | 0.307 | 0.331 | 0.458 | 0.378 | 0.61 | 0.53 | 0.524 | 0.549 | 0.681 | 0.449 | 0.415 | 0.564 | 0.27 | 0.931 | 1.02 | 1.04 | 1.17
3 | H3255 |  | 0.896 | 0.685 | 0.576 | 0.515 | 0.904 | 0.786 | 0.777 | 0.961 | 0.8 | 0.636 | 0.694 | 0.609 | 0.674 | 0.87 | 1.04 | 1.04 | 0.936
4 | NCI-H1563 |  |  |  |  |  |  |  |  |  |  |  |  |  |  | 0.837 | 0.942 | 0.936 | 0.924
5 | A549 |  |  |  |  |  |  |  |  |  |  | 0.28 | 0.257 | 0.298 | 0.291 | 0.733 | 0.807 | 0.891 | 0.702
6 | UMC-11 | 0.185 | 0.204 | 0.378 | 0.206 | 0.204 | 0.385 | 0.306 | 0.386 | 0.371 | 0.404 | 0.646 | 0.606 | 0.608 | 0.654 | 0.63 | 0.588 | 0.739 | 0.623

From the supplement of paper PMC10307832
